# Data from ChEMBL document CHEMBL3272279, “Synthesis of 5-chloro-3'-nitro-4'-substituted salicylanilides, a new series of anthelmintic and antimicrobial agents” (1977).
# Calls of active or inactive are those of the source. No cut-off for these calls is given here.
# Legend:
# [1] = tested on: Trichophyton mentagrophytes; assay: Antimicrobial activity against Trichophyton mentagrophytes assessed as growth inhibition after 24 hrs by two-fold serial dilution technique; type: functional
# Rodentolepis nana [2] = assay: Cestodicidal activity against Hymenolepis nana infected in po dosed rat administered as single dose; type: functional
# Salmonella typhi = assay: Antimicrobial activity against Salmonella typhi assessed as growth inhibition after 24 hrs by two-fold serial dilution technique; type: functional, organism-based; settings: Salmonella enterica subsp. enterica serovar Typhi
# Aspergillus niger = assay: Antimicrobial activity against Aspergillus niger assessed as growth inhibition after 24 hrs by two-fold serial dilution technique; type: functional
# Candida albicans [3] = assay: Antimicrobial activity against Candida albicans assessed as growth inhibition after 24 hrs by two-fold serial dilution technique; type: functional
# [4] = tested on: Agrobacterium tumefaciens; assay: Antimicrobial activity against Agrobacterium tumefaciens assessed as growth inhibition after 24 hrs by two-fold serial dilution technique; type: functional
# Escherichia coli [5] = assay: Antimicrobial activity against Escherichia coli assessed as growth inhibition after 24 hrs by two-fold serial dilution technique; type: functional, organism-based
# Microsporum canis = assay: Antimicrobial activity against Microsporum canis assessed as growth inhibition after 24 hrs by two-fold serial dilution technique; type: functional
# Bacillus subtilis = assay: Antimicrobial activity against Bacillus subtilis assessed as growth inhibition after 24 hrs by two-fold serial dilution technique; type: functional, organism-based
# Cryptococcus neoformans = assay: Antimicrobial activity against Cryptococcus neoformans assessed as growth inhibition after 24 hrs by two-fold serial dilution technique; type: functional
# Staphylococcus aureus = assay: Antimicrobial activity against penicillin-resistant Staphylococcus aureus assessed as growth inhibition after 24 hrs by two-fold serial dilution technique; type: functional
# Rodentolepis nana [6] = assay: Cestodicidal activity against Hymenolepis nana infected in rat at 250 mg/kg, po administered as single dose; type: functional, organism-based; design: dose 250 mg/kg
# Escherichia coli [7] = assay: Antimicrobial activity against Escherichia coli assessed as growth inhibition at 0.78 ug/ml after 24 hrs by two-fold serial dilution technique; type: functional, organism-based
# Candida albicans [8] = assay: Antimicrobial activity against Candida albicans assessed as growth inhibition at 0.39 ug/ml after 24 hrs by two-fold serial dilution technique; type: functional, organism-based
Structure (SMILES),MIC [1],MED98 (Rodentolepis nana [2]),growth inhibition (GI) (Salmonella typhi),MIC (Aspergillus niger),MIC (Candida albicans [3]),MIC [4],growth inhibition (GI) (Escherichia coli [5]),MIC (Microsporum canis),growth inhibition (GI) (Bacillus subtilis),MIC (Cryptococcus neoformans),MIC (Staphylococcus aureus),growth inhibition (GI) (Candida albicans [3]),Activity (Rodentolepis nana [6]),growth inhibition (GI) (Escherichia coli [7]),growth inhibition (GI) (Candida albicans [8])
O=C(Nc1ccc(N2CCCCC2)c([N+](=O)[O-])c1)c1cc(Cl)ccc1O,> 100 µg/mL,250 mg/kg,inactive,12.5 µg/mL,25 µg/mL,12.5 µg/mL,inactive,> 100 µg/mL,inactive,1.56 µg/mL,0.195 µg/mL,–,–,–,–
CC1CCCN(c2ccc(NC(=O)c3cc(Cl)ccc3O)cc2[N+](=O)[O-])C1 (stereo not given),6.25 µg/mL,250 mg/kg,inactive,> 100 µg/mL,–,> 100 µg/mL,inactive,3.12 µg/mL,inactive,25 µg/mL,0.39 µg/mL,inactive,–,–,–
O=C(Nc1ccc(N2CCC(c3ccccc3)CC2)c([N+](=O)[O-])c1)c1cc(Cl)ccc1O,6.25 µg/mL,250 mg/kg,inactive,> 100 µg/mL,–,25 µg/mL,inactive,6.25 µg/mL,inactive,3.12 µg/mL,0.39 µg/mL,inactive,–,–,–
O=C(Nc1ccc(Oc2ccccc2)c([N+](=O)[O-])c1)c1cc(Cl)ccc1O,1.56 µg/mL,250 mg/kg,inactive,25 µg/mL,–,> 100 µg/mL,inactive,0.78 µg/mL,inactive,> 100 µg/mL,0.00609 µg/mL,inactive,–,–,–
CCCCN(CCCC)c1ccc(NC(=O)c2cc(Cl)ccc2O)cc1[N+](=O)[O-],> 100 µg/mL,–,inactive,25 µg/mL,–,> 100 µg/mL,inactive,25 µg/mL,inactive,> 100 µg/mL,> 100 µg/mL,inactive,inactive,–,–
CC1CCN(c2ccc(NC(=O)c3cc(Cl)ccc3O)cc2[N+](=O)[O-])CC1,> 100 µg/mL,250 mg/kg,inactive,> 100 µg/mL,–,25 µg/mL,inactive,> 100 µg/mL,inactive,3.12 µg/mL,0.0975 µg/mL,inactive,–,–,–
CC1CCCCN1c1ccc(NC(=O)c2cc(Cl)ccc2O)cc1[N+](=O)[O-] (stereo not given),12.5 µg/mL,50 mg/kg,inactive,> 100 µg/mL,–,> 100 µg/mL,inactive,6.25 µg/mL,inactive,> 100 µg/mL,0.0975 µg/mL,inactive,–,–,–
Cc1cccc(Oc2ccc(NC(=O)c3cc(Cl)ccc3O)cc2[N+](=O)[O-])c1,1.56 µg/mL,–,inactive,> 100 µg/mL,–,> 100 µg/mL,inactive,0.78 µg/mL,inactive,> 100 µg/mL,0.195 µg/mL,inactive,inactive,–,–
O=C(Nc1ccc(Br)cc1)c1cc(Br)cc(Br)c1O [TRIBROMSALAN],1.56 µg/mL,–,inactive,12.5 µg/mL,–,12.5 µg/mL,inactive,0.78 µg/mL,inactive,6.25 µg/mL,0.0975 µg/mL,–,–,–,–
CN(C)[C@@H]1C(O)=C(C(N)=O)C(=O)[C@@]2(O)C(O)=C3C(=O)c4c(O)cccc4[C@@](C)(O)[C@H]3C[C@@H]12 [TETRACYCLINE],–,–,–,–,–,0.78 µg/mL,–,–,–,–,–,–,–,Active,–
O=C(Nc1ccc(N2CCC(O)(c3ccccc3)CC2)c([N+](=O)[O-])c1)c1cc(Cl)ccc1O,6.25 µg/mL,250 mg/kg,inactive,> 100 µg/mL,–,25 µg/mL,inactive,6.25 µg/mL,inactive,3.12 µg/mL,0.39 µg/mL,inactive,–,–,–
CCOc1ccc(NC(=O)c2cc(Cl)ccc2O)cc1[N+](=O)[O-],> 100 µg/mL,–,inactive,> 100 µg/mL,–,> 100 µg/mL,inactive,> 100 µg/mL,inactive,> 100 µg/mL,> 100 µg/mL,inactive,inactive,–,–
O=C(Nc1ccc(N2CCCCCC2)c([N+](=O)[O-])c1)c1cc(Cl)ccc1O,25 µg/mL,50 mg/kg,inactive,> 100 µg/mL,–,> 100 µg/mL,inactive,25 µg/mL,inactive,> 100 µg/mL,0.0975 µg/mL,inactive,–,–,–
C[C@@H]1[C@H](O)[C@@H](C)/C=C/C=C/C=C/C=C/C=C/C=C/C=C/[C@H](O[C@@H]2O[C@H](C)[C@@H](O)[C@H](N)[C@@H]2O)C[C@@H]2O[C@](O)(C[C@@H](O)C[C@@H](O)[C@H](O)CC[C@@H](O)C[C@@H](O)CC(=O)O[C@H]1C)C[C@H](O)[C@H]2C(=O)O [AMPHOTERICIN B],1.56 µg/mL,–,–,12.5 µg/mL,–,–,–,1.56 µg/mL,–,0.78 µg/mL,–,–,–,–,Active
O=C(Nc1ccc(NC2CCCCC2)c([N+](=O)[O-])c1)c1cc(Cl)ccc1O,3.12 µg/mL,30 mg/kg,inactive,25 µg/mL,–,> 100 µg/mL,inactive,3.12 µg/mL,inactive,25 µg/mL,0.0975 µg/mL,inactive,–,–,–
CCC1CCCCN1c1ccc(NC(=O)c2cc(Cl)ccc2O)cc1[N+](=O)[O-] (stereo not given),6.25 µg/mL,100 mg/kg,inactive,> 100 µg/mL,–,> 100 µg/mL,inactive,6.25 µg/mL,inactive,25 µg/mL,0.39 µg/mL,inactive,–,–,–
O=C(Nc1ccc(N2CCCC2)c([N+](=O)[O-])c1)c1cc(Cl)ccc1O,> 100 µg/mL,–,inactive,25 µg/mL,25 µg/mL,> 100 µg/mL,inactive,> 100 µg/mL,inactive,25 µg/mL,0.0975 µg/mL,–,inactive,–,–
O=C(Nc1ccc(N2CCN(c3ccccc3)CC2)c([N+](=O)[O-])c1)c1cc(Cl)ccc1O,3.12 µg/mL,50 mg/kg,inactive,25 µg/mL,–,> 100 µg/mL,inactive,1.56 µg/mL,inactive,12.5 µg/mL,0.39 µg/mL,inactive,–,–,–
CN1CCN(c2ccc(NC(=O)c3cc(Cl)ccc3O)cc2[N+](=O)[O-])CC1,0.195 µg/mL,100 mg/kg,inactive,25 µg/mL,25 µg/mL,25 µg/mL,inactive,0.39 µg/mL,inactive,25 µg/mL,0.195 µg/mL,–,–,–,–
Cc1ccc(Oc2ccc(NC(=O)c3cc(Cl)ccc3O)cc2[N+](=O)[O-])cc1,1.56 µg/mL,–,inactive,6.25 µg/mL,–,> 100 µg/mL,inactive,0.78 µg/mL,inactive,> 100 µg/mL,0.39 µg/mL,inactive,inactive,–,–
O=C(Nc1ccc(Oc2ccc(Cl)cc2)c([N+](=O)[O-])c1)c1cc(Cl)ccc1O,1.56 µg/mL,–,inactive,25 µg/mL,–,25 µg/mL,inactive,0.78 µg/mL,inactive,> 100 µg/mL,0.78 µg/mL,inactive,inactive,–,–
O=C(Nc1ccc([N+](=O)[O-])cc1Cl)c1cc(Cl)ccc1O [NICLOSAMIDE],–,50 mg/kg,–,–,–,–,–,–,–,–,–,–,–,–,–
